Laboratory results: patent publication US20070027121A1, “Method of treatment of diarrhea-predominant IBS in a female subject receiving contraceptive therapy” (priority 2005, published 2007)

Experiments:
[1] = parameters: dose or concentration left out as unconfirmed; conditions: co-administration with oral contraceptive containing; cited from earlier work
luteinizing hormone (LH) = assay: Mean serum concentration of LH in crossover study of OC plus cilansetron or placebo; type: in vivo, human; conditions: FIG. 5
Experimental: (§1) A double-blind, balanced, randomized, two-period, placebo-controlled, crossover study in 20 healthy female subjects (1845 years of age, and who had received Ortho Tri-Cyclen® oral contraceptive (“OC”) for three or more months immediately preceding the start of the study) of cilansetron administration was conducted. All subjects were to have their OC cycles synchronized so that on study Day 1, they received the first dose of their OC for that cycle. All subjects were to continue to receive daily administrations of OC through each of the two consecutive 28-day study periods. […] Safety was measured by monitoring adverse events, physical examination, clinical laboratory and pulmonary function tests, vital signs, 12 lead ECG, and telemetry.
(§2) In efforts to determine the effects (if any) of cilansetron 2 mg administration TID for 7 days on the pharmacodynamics of progesterone (P), luteinizing hormone (LH) and follicle stimulating hormone (FSH), the mean serum concentrations of these hormones was determined across the entire time-course of treatment, as set forth in Tables 6-8 and FIGS. 4-6. […]
(§3) Measurable serum concentrations of […], LH and P were available for 17 out of the 20 subjects, as determined using a validated ADVIA Centaur assay. […]

[2] = tested on: follicle stimulating hormone (FSH); assay: Mean serum concentration of FSH in crossover study of OC plus cilansetron or placebo; type: in vivo, human; conditions: FIG. 4
Experimental: as §1, §2, §3

[3] = parameters: species or system human; conditions: in vivo
Experimental: A double-blind, balanced, randomized, two-period, placebo-controlled, crossover study in 20 healthy female subjects (1845 years of age, and who had received Ortho Tri-Cyclen® oral contraceptive (“OC”) for three or more months immediately preceding the start of the study) of cilansetron administration was conducted. All subjects were to have their OC cycles synchronized so that on study Day 1, they received the first dose of their OC for that cycle. All subjects were to continue to receive daily administrations of OC through each of the two consecutive 28-day study periods. […] In addition, during the first 28 days of the study (“the first period”), half of the subjects were administered 2 mg doses of cilansetron three times daily (TID) for 7 days (i.e., study days 14-21), while the other half of the subjects received equivalent doses of a placebo TID. On the first day of the “second period” of the 56-day study (i.e., day 29), the two groups were crossed over for the administration of the reverse treatment (i.e., those subjects who had been administered cilansetron 2 mg TID in the first period were to receive equivalent placebo administrations, and vice versa) for 7 days (i.e., study days 4249). Thereby, all subjects received both cilansetron and placebo treatments and, therefore, served as their own control. Safety was measured by monitoring adverse events, physical examination, clinical laboratory and pulmonary function tests, vital signs, 12 lead ECG, and telemetry. […]
The mean plasma concentration-time profile for EE was determined for both treatment groups in each of the two study periods, and are set forth in Table 1 (the contents of which are graphically illustrated in FIG. 1). The mean plasma concentration-time profile for NGM was determined for both treatment groups in each of the two study periods, and are set forth in Table 2. The mean plasma concentration-time profile for 17-d-NGM was determined for both treatment groups in each of the two study periods, and are set forth in Table 3 (the contents of which are graphically illustrated in FIG. 2). […]

progesterone (P) = assay: Mean serum concentration of progesterone (P) in crossover study of OC plus cilansetron or placebo; type: in vivo, human; conditions: FIG. 6
Experimental: as §1, §2, §3

| SMILES | decrease in systemic exposure to the EE component [1] [%] | decrease in systemic exposure to the LN component [1] [%] | mean serum concentration of LH compared with OC therapy alone (luteinizing hormone (LH)) | mean serum concentration of FSH compared with OC therapy alone [2] | effect on the pharmacokinetic and pharmacodynamic profiles and parameters associated with normal contraceptive use [3] | mean plasma concentration of 17-d-NGM compared with OC therapy alone [3] | mean plasma concentration of EE compared with OC therapy alone [3] | mean serum concentration of endogenous progesterone (P) compared with OC therapy alone (progesterone (P)) |
| --- | --- | --- | --- | --- | --- | --- | --- | --- |
| Cc1[nH]cnc1CN1CCc2c(c3ccccc3n2C)C1=O [alosetron] | 9 | 13 | – | – | – | – | – | – |
| Cc1nccn1C[C@H]1CCc2c(c3cccc4c3n2CCC4)C1=O [cilansetron, (R)-(−)-4,5,6,8,9,10-hexahydro-10-[(2-methyl-1H-imidazol-1-yl)methyl]-11H-pyrido-[3,2,1-jk]-carbazol-11-one] | – | – | substantially the same | substantially the same | substantially no or no effect | substantially the same | substantially the same | substantially the same |
